Patent US8445441B2, “Inhibitors of BCL-2” (Case Western Reserve University, priority 2007, dated 2013)

Assays:
WEHI7.2 cells = test: anti-CD3-induced Ca2+ elevation by digital imaging; assay type: cell-based; conditions: 60 μM peptide with Chariot reagent
Description: (§1) FIGS. 6A-D illustrates peptide 2 (SEQ ID NO:3) Reverses Bcl-2's Inhibition of Anti-CD3-Induced Ca^2+Elevation. (A) Representative Ca^2+ traces (each the mean of ˜65 cells) recording anti-CD3 (arrow, time of addition)-induced Ca^2+ elevation in Bcl-2(+) WEHI7.2 cells. Peptide (60 μM) uptake was facilitated by Chariot reagent. (B) Peak anti-CD3 induced Ca^2+ elevation in Bcl-2(−) and Bcl-2(+) WEHI7.2 cells treated with peptides as in (A) [mean±SEM, five experiments for Bcl-2(−) and seven experiments for Bcl-2(+) cells, with mean 68 cells per sample per experiment]. (C) Representative Ca^2+ traces in Jurkat cells (mean 85 cells each). Treatment conditions are the same as in (A), except that a control involving addition of peptide 2 without Chariot reagent has been added. (D) Peak anti-CD3-induced Ca^2+ elevation in Jurkat cells treated with peptides as in (C) (mean±SEM, seven experiments, mean 81 cells per sample per experiment).
(§2) Next we investigated whether peptide 2 also reverses Bcl-2's inhibitory effect on Ca^2+ release through the IP3R in Bcl-2(+) and (−) WEHI7.2 clones, newly derived WEHI7.2 mixed populations exogenously expressing Bcl-2, and Jurkat cells. Optimal conditions for peptide delivery and anti-CD3 concentration were determined in preliminary experiments. Peptide delivery in the lipid bilayer is 100%, whereas the penetration of peptide 2 into cells is much less, accounting for the lesser effect in cells. Therefore, a higher concentration of peptide (60 μM) was delivered into cells using the Chariot delivery reagent. Cytoplasmic Ca^2+ concentration was continuously measured at a single-cell level by digital imaging during anti-CD3 treatment. Representative Ca^2+ traces from Bcl-2(+) WEHI7.2 cells are shown in FIG. 6A, and the average Ca^2+ elevation induced by anti-CD3 in seven experiments is summarized in FIG. 6B. Observed variations in lag phase are at least partially attributable to the fact that lymphocytes are only loosely adherent to coverslips and thus rapid buffer exchange is not possible during antibody additions. Peptide 2 enhanced anti-CD3-induced Ca^2+ elevation in Bcl-2(+) WEHI7.2 cells by 40%. […] Peptide 2 had no effect on Ca^2+ elevation when added to the cells in the absence of the Chariot reagent. […] The low Bcl-2 level in Jurkat cells and the barely detectable endogenous Bcl-2 in Bcl-2(−) WEHI7.2 cells are consistent with the higher amplitude and longer duration of the Ca^2+ response in these cells in contrast to Bcl-2(+) WEHI7.2 cells (compare FIGS. 6A and 6B to FIGS. 6C and 6D). Thus, peptide 2 modulated anti-CD3-induced Ca^2+ elevation in both Bcl-2(+) WEHI7.2 cells and Jurkat cells, consistent with the ability of peptide 2 to disrupt Bcl-2-IP3R interaction.

Jurkat cells = test: anti-CD3-induced Ca2+ elevation by digital imaging; assay type: cell-based
Description: as §1, §2

IP3R type 1 channel = test: single IP3R channel activity in planar lipid bilayers; assay type: biochemical; conditions: 2 μM IP3, 250 nM Ca2+
Description: FIG. 5 illustrates a summary of multiple experiments (mean±SEM) measuring effects of Bcl-2 and peptides on IP3R channel open probability. n=number of individual channels examined. Symbols represent mean±SEM. *p<0.05.
The effects of peptide 2 and purified Bcl-2 on IP3R channel activity were analyzed in planar lipid bilayers under steady-state conditions. Single IP3R type 1 channel activity was visualized as a series of discrete positive current fluctuations in the presence of 2 μM IP3 and 250 nM Ca^2+ in the cis compartment (cytoplasmic side of channel). A significant reduction in single channel activity was observed after adding 0.1 μM purified Bcl-2 to the cytoplasmic face of the IP3R channel, and addition of 10 μM peptide 2 reversed Bcl-2's inhibitory effect on channel activity. Average open probabilities under various conditions were calculated from multiple repeated experiments (FIG. 5). Addition of Bcl-2 reduced IP3R open probability by 11.5-fold to 0.018.

[1] = tested on: murine embryonic fibroblasts (MEFs); test: unidirectional 45Ca2+ flux, IP3-induced efflux; assay type: cell-based; conditions: in the presence of thapsigargin
Text: The conclusion that peptide 2 acts directly on the Bcl-2-IP3R interaction is supported not only by experiments described above (FIG. 5) in which peptide 2 reversed Bcl-2-mediated inhibition of IP3R channel opening in vitro, but also by unidirectional ^45Ca^2+ flux experiments that allow for very accurate quantification of Ca^2+ release through IP3Rs located on the ER. These experiments require firmly adherent cells, and therefore murine embryonic fibroblasts (MEFs), which have a somewhat lower level of endogenous Bcl-2 than Jurkat cells, were employed. The rate of IP3-induced ^45Ca^2+ efflux was measured in the presence of thapsigargin, which completely prevents ER Ca^2+ reuptake.

## NVYTEIKCNSLLPLDDIVRV (listed as Homo sapiens) [peptide 2, 20 amino acid peptide, aa 1389-1408 of IP3R subdomain 3a1]
WEHI7.2 cells; Bcl-2(+) WEHI7.2 cells
  enhancement of anti-CD3-induced Ca2+ elevation: 40%
WEHI7.2 cells; Bcl-2(−) WEHI7.2 cells
  effect on anti-CD3-induced Ca2+ elevation: did not have a significant effect
Jurkat cells; Jurkat cells with endogenous Bcl-2 knocked down by siRNA
  enhancement of anti-CD3-induced Ca2+ elevation: did not enhance
Jurkat cells; Jurkat cells, 60 μM peptide with Chariot reagent
  enhancement of anti-CD3-induced Ca2+ elevation: significantly enhanced
Jurkat cells; absence of anti-CD3 stimulation (data not shown)
  effect on intracellular Ca2+ levels: did not affect
Jurkat cells; peptide added in the absence of Chariot reagent
  effect on Ca2+ elevation: no effect
IP3R type 1 channel; 10 μM peptide after 0.1 μM purified Bcl-2, Bcl-2 alone 0.018
  IP3R open probability: 0.16
IP3R type 1 channel; after 0.1 μM purified Bcl-2
  reversal of Bcl-2's inhibitory effect on channel activity: reversed
[1]
  rate of IP3-induced 45Ca2+ efflux: significantly increased
